What was measured:
[1] = Particle size of Luc DNA-encapsulated lipid nanoparticles; format: physicochemical; details: cationic lipid:DPPC:cholesterol:GM-020=60:10.6:28:1.4 molar ratio
How it was run: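 LNPs of cationic lipid:DPPC:cholesterol:GM-020 (60:10.6:28:1.4 molar) encapsulating luciferase DNA, made by microfluidic mixing with DNA in 10 mM MES pH 5.5, dialysed into PBS, stored in 20% sucrose/PBS at −80 °C. Size by dynamic light scattering, reported as cumulant Z-average.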

[2] = Rate of encapsulation of Luc DNA in lipid nanoparticles; format: physicochemical; parameters: unit: %; details: Luc DNA-encapsulated lipid nanoparticles; cationic lipid:DPPC:cholesterol:GM-020=60:10.6:28:1.4 molar ratio
How it was run: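 Luc DNA-LNPs (cationic lipid:DPPC:cholesterol:GM-020 = 60:10.6:28:1.4 molar) formed by microfluidic mixing with DNA in 10 mM MES pH 5.5, then dialyzed into PBS. RiboGreen fluorescence measured with and without Triton X-100; encapsulation rate is the encapsulated fraction of total nucleic acid.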

ICrl:CD1 (ICR) mice = test: Mouse bioluminescence imaging evaluation (Test Example 1); format: in vivo; details: Luc DNA-encapsulated lipid nanoparticles 10 mL/kg i.v. to ICR mice; IVIS total flux 15 minutes after luciferin i.p.
How it was run: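 ICR mice received Luc DNA-encapsulated lipid nanoparticles i.v. (10 mL/kg), then luciferin 15 mg/mL i.p. (10 mL/kg). Ventral IVIS imaging under isoflurane 15 min after luciferin; total flux scored A (≥3.0E+07), B (1.0E+07 to <3.0E+07), C (<1.0E+07).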

Huh-7 cells = test: Evaluation of viability using Huh-7 cells (Test Example 2); format: cell-based; details: Huh-7 cells, Luc DNA-encapsulated lipid nanoparticles, PBS group = 100%, dead cell group = 0%; for Viability 0.1 μg/ml (%): final concentration 0.1 μg/mL; for Viability 0.3 μg/ml (%): final concentration 0.3 μg/mL
Description: Huh-7 cells were seeded in a 96-well plate, and PBS, the Luc DNA-encapsulated lipid nanoparticles obtained in the aforesaid Production Example by using the cationic lipids of the Examples shown in Table 3, or Luc DNA-encapsulated lipid nanoparticles for control which were obtained in the same manner as in the aforesaid Production Example except that a known lipid, MC3 (DLin-MC3-DMA) or ALC-0315, was used instead of the cationic lipids of the Examples were added thereto (final concentration: 0.1 μg/mL and 0.3 μg/mL), followed by evaluation of viability (CellTiter-Fluor Cell Viability Assay, Promega Corporation). Taking the viability of dead cell group as 0% and the viability of the PBS group as 100%, the viability of each of the lipid particle groups was calculated. Higher viability indicates higher safety of the lipid particles. When the cationic lipids of the Examples were used, an improvement in safety compared to the control groups of MC3 and ALC-0315 was observed.

SMILES | Particle size (nm) [1] [nm] | Rate of encapsulation [2] | Luminescence (ICrl:CD1 (ICR) mice) | Viability 0.1 μg/ml (%) (Huh-7 cells) | Viability 0.3 μg/ml (%) (Huh-7 cells)
CCCCCCCCCOC(=O)CCCCC(=O)OCC(COC(=O)CCCCC(=O)OCCCCCCCCC)(COC(=O)CCCCC(=O)OCCCCCCCCC)COC(=O)CCCN(C)C [Example 41, 1,1′-[2-({[4-(Dimethylamino)butanoyl]oxy}methyl)-2-({[6-(nonyloxy)-6-oxohexanoyl]oxy}methyl)propane-1,3-diyl] 6,6′-dinonyl dihexanedioate] | 138.0 | 80.3 | B (B represents luminescence of 1.0E+0.7 or more and less than 3.0E+07) | 111 | 101
CCCCCCCOC(=O)CCCCC(=O)OCC(COC(=O)CCCCC(=O)OCCCCCCC)(COC(=O)CCCN(C)C)COC(=O)CC(CCC)CCCCCCC (stereo not drawn) [Example 28, 1,1′-[2-({[4-(Dimethylamino)butanoyl]oxy}methyl)-2-{[(3-propyldecanoyl)oxy]methyl}propane-1,3-diyl] 6,6′-diheptyl dihexanedioate] | 137.3 | 94.9 | A (A represents luminescence of 3.0E+07 or more) | 113 | 110
CCCCCC(CCCCC)COC(=O)CCC(=O)OCC(COC(=O)CCCN(C)C)(COC(=O)CCC(=O)OCC(CCCCC)CCCCC)COC(=O)CCC(=O)OCC(CCCCC)CCCCC [Example 37, 1,1′-{2-({[4-(Dimethylamino)butanoyl]oxy}methyl)-2-[({4-oxo-4-[(2-pentylheptyl)oxy]butanoyl}oxy)methyl]propane-1,3-diyl} 4,4′-bis(2-pentylheptyl) dibutanedioate] | 124.1 | 97.0 | A (A represents luminescence of 3.0E+07 or more) | 111 | 98
CCCCCCCOC(=O)CCCCC(=O)OCC(COC(=O)CCCCN(C)C)(COC(=O)CC(CCCCC)CCCCC)COC(=O)CC(CCCCC)CCCCC [Example 18, 2-({[5-(Dimethylamino)pentanoyl]oxy}methyl)-3-[(3-pentyloctanoyl)oxy]-2-{[(3-pentyloctanoyl)oxy]methyl}propyl heptyl hexanedioate] | 138.9 | 96.6 | A (A represents luminescence of 3.0E+07 or more) | 110 | 106
CCCCC/C=C\C/C=C\CCCCCCCCC(CCCCCCCC/C=C\C/C=C\CCCCC)OC(=O)CCCN(C)C [MC3, reference compound] |  |  |  | 97 | 49
CCCCCCCCCCOC(=O)CCCCC(=O)OCC(COC(=O)CCCCC(=O)OCCCCCCCCCC)(COC(=O)CCCN(C)C)COC(=O)CC(CCCCC)CCCCC [Example 45, 1,1′-Didecyl 6,6′-[2-({[4-(dimethylamino)butanoyl]oxy}methyl)-2-{[(3-pentyloctanoyl)oxy]methyl}propane-1,3-diyl] dihexanedioate] | 119.0 | 95.6 | A (A represents luminescence of 3.0E+07 or more) | 108 | 103
CCCCCCCCC(C(=O)OC)C(=O)OCC(COC(=O)CCCN(C)C)(COC(=O)CC(CCCCC)CCCCC)COC(=O)C(CCCCCCCC)C(=O)OC (stereo not drawn) [Example 132, 1,1′-[2-({[4-(Dimethylamino)butanoyl]oxy}methyl)-2-{[(3-pentyloctanoyl)oxy]methyl}propane-1,3-diyl] 3,3′-dimethyl bis(octylpropanedioate)] | 129.2 | 96.5 | A (A represents luminescence of 3.0E+07 or more) | 95 | 94
CCCCCCCOC(=O)CCCCC(=O)OCC(COC(=O)CCCCC(=O)OCCCCCCC)(COC(=O)CCCN(C)C)COC(=O)CC(CCCCC)CCCCC [Example 13, 1,1′-[2-({[4-(Dimethylamino)butanoyl]oxy}methyl)-2-{[(3-pentyloctanoyl)oxy]methyl}propane-1,3-diyl] 6,6′-diheptyl dihexanedioate] | 136.5 | 96.3 | A (A represents luminescence of 3.0E+07 or more) | 112 | 105
CCCCCCCOC(=O)CCCCC(=O)OCC(COC(=O)CCCCC(=O)OCCCCCCC)(COC(=O)CCCN(CC)CC)COC(=O)CC(CCCCC)CCCCC [Example 14, 1,1′-[2-{{[4-(Diethylamino)butanoyl]oxy}methyl)-2-{[(3-pentyloctanoyl)oxy]methyl}propane-1,3-diyl] 6,6′-diheptyl dihexanedioate] | 145.0 | 94.7 | A (A represents luminescence of 3.0E+07 or more) |  | 
CCCCCCCOC(=O)CCCCC(=O)OCC(COC(=O)CCCN(CC)CC)(COC(=O)CC(CCCCC)CCCCC)COC(=O)CC(CCCCC)CCCCC [Example 17, 2-({[4-(Diethylamino)butanoyl]oxy}methyl)-3-[(3-pentyloctanoyl)oxy]-2-{[(3-pentyloctanoyl)oxy]methyl}propyl heptyl hexanedioate] | 120.7 | 96.2 | B (B represents luminescence of 1.0E+0.7 or more and less than 3.0E+07) |  | 
CCCCCCCCC(CCCCCC)C(=O)OCCCCCCN(CCCCO)CCCCCCOC(=O)C(CCCCCC)CCCCCCCC (stereo not drawn) [ALC-0315, reference compound] |  |  |  | 89 | 68
CCCCCCCCOC(=O)CCCCC(=O)OCC(COC(=O)CCCCC(=O)OCCCCCCCC)(COC(=O)CCCN(C)C)COC(=O)CC(CCCCC)CCCCC [Example 43, 1,1′-[2-({[4-(Dimethylamino)butanoyl]oxy}methyl)-2-{[(3-pentyloctanoyl)oxy]methyl}propane-1,3-diyl] 6,6′-dioctyl dihexanedioate] | 126.7 | 96.0 | A (A represents luminescence of 3.0E+07 or more) |  | 
CCCCCCOC(=O)C(CCCCCC)C(=O)OCC(COC(=O)CCCCN(C)C)(COC(=O)CC(CCCCC)CCCCC)COC(=O)C(CCCCCC)C(=O)OCCCCCC (stereo not drawn) [Example 122, 1,1′-[2-({[5-(Dimethylamino)pentanoyl]oxy}methyl)-2-{[(3-pentyloctanoyl)oxy]methyl}propane-1,3-diyl] 3,3′-dihexyl bis(hexylpropanedioate)] | 152.1 | 96.0 | B (B represents luminescence of 1.0E+0.7 or more and less than 3.0E+07) |  | 
CCCCCCCOC(=O)CCCCC(=O)OCC(COC(=O)CCCCC(=O)OCCCCCCC)(COC(=O)CCCN(C)C)COC(=O)CC(CCCCCC)CCCCCC [Example 85, 1,1′-[2-({[4-(Dimethylamino)butanoyl]oxy}methyl)-2-{[(3-hexylnonanoyl)oxy]methyl}propane-1,3-diyl] 6,6′-diheptyl dihexanedioate] | 148.3 | 95.4 | B (B represents luminescence of 1.0E+0.7 or more and less than 3.0E+07) |  | 
CCCCCOC(=O)CCCCCCCC(=O)OCC(COC(=O)CCCCCCCC(=O)OCCCCC)(COC(=O)CCCCCCCC(=O)OCCCCC)COC(=O)CCCN(C)C [Example 55, 1,1′-[2-({[4-(Dimethylamino)butanoyl]oxy}methyl)-2-({[9-oxo-9-(pentyloxy)nonanoyl]oxy}methyl)propane-1,3-diyl] 9,9′-dipentyl dinonanedioate] | 186.2 | 79.7 | C (C represents luminescence of less than 1.0E+07) |  | 
